Laboratory results: patent US20260184713A1, “KINASE INHIBITORS” (The United States of America, as represented by the …, priority 2022, published 2026)
Where two headings read alike, the source gives them in different places.

How the values were obtained:
Assay in all cases: HOTSPOT radiometric kinase assay
STK39/STLK3 = target: T1, STK39/STLK3 (Homo sapiens, UniProt Q9UEW8); assay type: biochemical; settings: 2 μM, 10 μM ATP
T1 construct: purchased Reaction Biology Corp

PKD2 = target: T2, PKD2 (Homo sapiens, UniProt Q9BZL6); assay type: biochemical; settings: 10 μM ATP
T2 construct: purchased Reaction Biology Corp

IRAK2 = target: T3, IRAK2 (Homo sapiens, UniProt O43187); assay type: biochemical; settings: 10 μM ATP
T3 construct: purchased Reaction Biology Corp

PKCε = target: T4, PKCε (Homo sapiens, UniProt Q02156); assay type: biochemical; settings: 10 μM ATP
T4 construct: purchased Reaction Biology Corp
T4 sequence (Q02156 whole entry): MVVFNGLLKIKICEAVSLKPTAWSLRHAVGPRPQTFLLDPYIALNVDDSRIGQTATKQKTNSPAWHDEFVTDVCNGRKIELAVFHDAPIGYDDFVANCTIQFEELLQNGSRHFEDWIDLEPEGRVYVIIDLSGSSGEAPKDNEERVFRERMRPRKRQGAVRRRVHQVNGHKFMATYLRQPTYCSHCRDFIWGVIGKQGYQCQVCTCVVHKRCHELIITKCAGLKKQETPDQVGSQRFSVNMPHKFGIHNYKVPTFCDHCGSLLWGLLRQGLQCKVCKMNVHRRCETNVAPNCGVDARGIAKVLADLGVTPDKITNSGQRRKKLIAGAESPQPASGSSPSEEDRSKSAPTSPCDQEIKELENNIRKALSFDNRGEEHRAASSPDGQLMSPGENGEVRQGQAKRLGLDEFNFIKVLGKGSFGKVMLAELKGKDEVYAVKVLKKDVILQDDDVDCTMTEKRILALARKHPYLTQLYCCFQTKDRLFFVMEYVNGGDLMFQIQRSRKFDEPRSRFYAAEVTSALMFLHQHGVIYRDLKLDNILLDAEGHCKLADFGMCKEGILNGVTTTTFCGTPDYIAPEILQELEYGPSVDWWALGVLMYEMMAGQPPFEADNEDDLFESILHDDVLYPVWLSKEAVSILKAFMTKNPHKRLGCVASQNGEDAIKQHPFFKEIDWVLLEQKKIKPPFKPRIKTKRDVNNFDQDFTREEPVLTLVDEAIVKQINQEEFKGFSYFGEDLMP

FLT3 = target: T5, FLT3 (Homo sapiens, UniProt P36888); assay type: biochemical
T5 construct: purchased Reaction Biology Corp

PKCμ/PKD1 = target: T6, PKCμ/PKD1 (Homo sapiens, UniProt Q15139); assay type: biochemical; settings: 10 μM ATP
T6 construct: purchased Reaction Biology Corp
T6 sequence (Q15139 whole entry): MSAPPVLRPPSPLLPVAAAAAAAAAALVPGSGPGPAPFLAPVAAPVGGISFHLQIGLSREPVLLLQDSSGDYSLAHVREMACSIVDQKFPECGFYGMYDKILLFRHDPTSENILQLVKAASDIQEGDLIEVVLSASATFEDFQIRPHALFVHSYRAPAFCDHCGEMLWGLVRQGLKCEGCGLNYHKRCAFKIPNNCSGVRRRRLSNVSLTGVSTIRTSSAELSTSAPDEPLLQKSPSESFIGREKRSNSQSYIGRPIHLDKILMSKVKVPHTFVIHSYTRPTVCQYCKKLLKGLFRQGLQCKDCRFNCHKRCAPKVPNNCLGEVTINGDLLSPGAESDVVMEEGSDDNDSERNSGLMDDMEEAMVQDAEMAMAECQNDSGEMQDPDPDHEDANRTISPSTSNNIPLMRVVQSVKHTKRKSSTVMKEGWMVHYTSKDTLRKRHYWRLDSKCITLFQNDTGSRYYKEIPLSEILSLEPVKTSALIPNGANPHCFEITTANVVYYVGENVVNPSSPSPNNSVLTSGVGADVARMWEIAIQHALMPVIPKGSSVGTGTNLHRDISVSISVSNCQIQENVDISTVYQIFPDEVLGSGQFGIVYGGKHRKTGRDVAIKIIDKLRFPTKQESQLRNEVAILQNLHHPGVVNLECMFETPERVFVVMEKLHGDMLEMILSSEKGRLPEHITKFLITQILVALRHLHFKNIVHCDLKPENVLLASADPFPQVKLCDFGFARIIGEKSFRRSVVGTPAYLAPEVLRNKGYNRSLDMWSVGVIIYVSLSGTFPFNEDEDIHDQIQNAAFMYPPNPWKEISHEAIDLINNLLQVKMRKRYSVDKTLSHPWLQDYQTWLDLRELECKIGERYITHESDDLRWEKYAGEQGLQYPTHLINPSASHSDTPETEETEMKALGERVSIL

DYRK2 = target: T7, DYRK2 (Homo sapiens, UniProt Q92630); assay type: biochemical
T7 construct: purchased Reaction Biology Corp
T7 sequence (Q92630 1-601): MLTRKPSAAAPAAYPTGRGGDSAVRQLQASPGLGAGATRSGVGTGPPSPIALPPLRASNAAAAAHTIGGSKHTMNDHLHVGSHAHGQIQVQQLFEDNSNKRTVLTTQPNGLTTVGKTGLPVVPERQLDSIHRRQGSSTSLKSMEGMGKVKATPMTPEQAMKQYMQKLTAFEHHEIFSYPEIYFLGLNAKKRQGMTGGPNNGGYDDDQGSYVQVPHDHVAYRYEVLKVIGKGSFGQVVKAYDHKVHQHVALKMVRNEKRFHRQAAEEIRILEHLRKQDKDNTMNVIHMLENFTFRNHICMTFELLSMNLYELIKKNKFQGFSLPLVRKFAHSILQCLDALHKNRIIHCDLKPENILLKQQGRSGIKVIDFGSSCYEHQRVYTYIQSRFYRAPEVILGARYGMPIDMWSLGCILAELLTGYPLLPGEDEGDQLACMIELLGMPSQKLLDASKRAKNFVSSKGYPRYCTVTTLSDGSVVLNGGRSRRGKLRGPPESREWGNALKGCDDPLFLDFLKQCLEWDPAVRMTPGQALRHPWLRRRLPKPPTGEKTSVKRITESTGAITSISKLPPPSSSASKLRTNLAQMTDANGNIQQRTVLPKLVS

PKN3 = target: T8, PKN3 (Homo sapiens, UniProt Q6P5Z2); assay type: biochemical; settings: 10 μM ATP
T8 construct: purchased Reaction Biology Corp
T8 sequence (Q6P5Z2 whole entry): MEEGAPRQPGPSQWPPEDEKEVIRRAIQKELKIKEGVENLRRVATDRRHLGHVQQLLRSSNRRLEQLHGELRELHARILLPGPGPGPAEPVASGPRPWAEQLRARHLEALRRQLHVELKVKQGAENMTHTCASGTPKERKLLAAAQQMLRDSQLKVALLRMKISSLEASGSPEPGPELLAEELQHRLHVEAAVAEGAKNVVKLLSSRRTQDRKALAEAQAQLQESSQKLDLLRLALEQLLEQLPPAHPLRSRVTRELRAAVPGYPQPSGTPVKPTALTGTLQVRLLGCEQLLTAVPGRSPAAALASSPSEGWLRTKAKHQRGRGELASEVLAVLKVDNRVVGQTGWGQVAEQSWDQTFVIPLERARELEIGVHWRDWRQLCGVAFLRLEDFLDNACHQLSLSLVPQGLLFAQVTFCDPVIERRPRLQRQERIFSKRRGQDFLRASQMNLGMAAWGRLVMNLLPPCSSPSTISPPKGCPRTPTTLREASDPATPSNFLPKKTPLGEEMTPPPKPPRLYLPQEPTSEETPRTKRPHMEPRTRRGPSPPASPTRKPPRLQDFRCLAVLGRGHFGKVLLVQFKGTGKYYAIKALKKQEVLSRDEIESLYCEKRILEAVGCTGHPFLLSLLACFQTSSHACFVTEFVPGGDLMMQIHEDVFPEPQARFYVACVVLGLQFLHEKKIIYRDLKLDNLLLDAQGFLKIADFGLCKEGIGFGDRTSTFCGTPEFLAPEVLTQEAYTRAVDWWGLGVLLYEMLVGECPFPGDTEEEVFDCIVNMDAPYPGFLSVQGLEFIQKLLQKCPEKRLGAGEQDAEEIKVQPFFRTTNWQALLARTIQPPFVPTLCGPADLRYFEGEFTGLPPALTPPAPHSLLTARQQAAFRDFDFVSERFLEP

smMLCK = target: T9, smMLCK (Homo sapiens, UniProt Q15746); assay type: biochemical; settings: 10 μM ATP
T9 construct: purchased Reaction Biology Corp

DYRK3 = target: T10, DYRK3 (Homo sapiens, UniProt O43781); assay type: biochemical
T10 construct: purchased Reaction Biology Corp
T10 sequence (O43781 1-588): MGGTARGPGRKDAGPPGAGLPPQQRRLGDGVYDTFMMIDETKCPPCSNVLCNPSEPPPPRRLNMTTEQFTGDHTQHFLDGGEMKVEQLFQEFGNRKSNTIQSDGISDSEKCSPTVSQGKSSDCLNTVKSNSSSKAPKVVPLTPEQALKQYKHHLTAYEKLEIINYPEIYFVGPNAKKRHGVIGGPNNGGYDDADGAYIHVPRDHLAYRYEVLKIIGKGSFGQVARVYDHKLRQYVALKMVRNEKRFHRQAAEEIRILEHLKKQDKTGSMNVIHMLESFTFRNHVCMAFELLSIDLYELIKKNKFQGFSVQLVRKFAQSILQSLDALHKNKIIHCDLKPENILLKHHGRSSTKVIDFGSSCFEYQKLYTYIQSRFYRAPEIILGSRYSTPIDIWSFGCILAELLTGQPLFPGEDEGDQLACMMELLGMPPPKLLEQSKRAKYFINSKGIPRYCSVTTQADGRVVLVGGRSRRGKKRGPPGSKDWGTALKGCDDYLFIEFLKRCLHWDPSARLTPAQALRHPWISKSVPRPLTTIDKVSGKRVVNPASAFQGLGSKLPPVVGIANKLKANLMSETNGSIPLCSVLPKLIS

PKCη = target: T11, PKCη (Homo sapiens, UniProt P24723); assay type: biochemical
T11 construct: purchased Reaction Biology Corp
T11 sequence (P24723 whole entry): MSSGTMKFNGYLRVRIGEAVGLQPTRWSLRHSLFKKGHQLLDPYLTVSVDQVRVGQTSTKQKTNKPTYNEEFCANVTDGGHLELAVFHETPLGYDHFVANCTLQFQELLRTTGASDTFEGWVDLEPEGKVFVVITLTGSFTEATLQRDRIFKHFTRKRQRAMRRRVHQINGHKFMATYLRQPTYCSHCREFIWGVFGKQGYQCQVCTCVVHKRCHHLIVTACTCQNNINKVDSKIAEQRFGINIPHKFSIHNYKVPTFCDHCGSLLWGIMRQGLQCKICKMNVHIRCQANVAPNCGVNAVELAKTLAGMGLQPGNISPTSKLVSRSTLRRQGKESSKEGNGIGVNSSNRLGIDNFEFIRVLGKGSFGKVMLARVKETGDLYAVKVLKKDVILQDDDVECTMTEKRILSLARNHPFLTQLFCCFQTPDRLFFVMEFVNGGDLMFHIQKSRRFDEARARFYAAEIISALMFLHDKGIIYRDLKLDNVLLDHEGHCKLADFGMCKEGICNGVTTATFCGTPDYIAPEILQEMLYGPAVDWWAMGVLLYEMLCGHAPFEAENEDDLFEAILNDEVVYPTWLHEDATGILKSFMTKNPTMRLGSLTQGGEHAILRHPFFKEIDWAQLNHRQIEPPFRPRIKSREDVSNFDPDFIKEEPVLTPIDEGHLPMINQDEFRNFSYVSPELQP

YSK1 = target: T12, YSK1 (Homo sapiens, UniProt O00506); assay type: biochemical; settings: 50 nM, 10 μM ATP
T12 construct: purchased Reaction Biology Corp

MSK2 = target: T13, MSK2 (Homo sapiens, UniProt O75676); assay type: biochemical; settings: 10 μM ATP
T13 construct: purchased Reaction Biology Corp
T13 sequence (O75676 whole entry): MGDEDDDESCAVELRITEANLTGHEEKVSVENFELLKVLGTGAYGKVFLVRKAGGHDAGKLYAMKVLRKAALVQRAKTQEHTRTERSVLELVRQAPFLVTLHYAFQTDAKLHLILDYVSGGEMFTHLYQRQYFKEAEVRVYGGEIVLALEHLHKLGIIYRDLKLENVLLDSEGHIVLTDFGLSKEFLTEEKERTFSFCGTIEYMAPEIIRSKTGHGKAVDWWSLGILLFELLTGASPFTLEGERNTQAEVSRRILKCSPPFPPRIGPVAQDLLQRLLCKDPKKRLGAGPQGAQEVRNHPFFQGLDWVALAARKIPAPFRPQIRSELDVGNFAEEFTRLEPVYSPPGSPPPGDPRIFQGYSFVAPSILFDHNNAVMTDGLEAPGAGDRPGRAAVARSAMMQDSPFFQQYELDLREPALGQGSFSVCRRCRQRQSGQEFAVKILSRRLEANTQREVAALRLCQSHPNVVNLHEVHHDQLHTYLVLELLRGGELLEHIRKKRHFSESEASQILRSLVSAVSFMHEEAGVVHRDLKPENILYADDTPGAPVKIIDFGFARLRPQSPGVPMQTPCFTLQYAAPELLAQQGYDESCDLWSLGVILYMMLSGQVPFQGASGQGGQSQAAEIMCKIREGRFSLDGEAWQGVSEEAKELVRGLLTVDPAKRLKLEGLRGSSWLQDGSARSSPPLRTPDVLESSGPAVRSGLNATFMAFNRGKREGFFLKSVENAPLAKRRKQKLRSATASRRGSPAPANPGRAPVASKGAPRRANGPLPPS

RSK1 = target: T14, RSK1 (Homo sapiens, UniProt Q15418); assay type: biochemical; settings: 10 μM ATP
T14 construct: purchased Reaction Biology Corp

DYRK4 = target: T15, DYRK4 (Homo sapiens, UniProt Q9NR20); assay type: biochemical; settings: 10 μM ATP
T15 construct: purchased Reaction Biology Corp

CLK3 = target: T16, CLK3 (Homo sapiens, UniProt P49761); assay type: biochemical; settings: 10 μM ATP
T16 construct: purchased Reaction Biology Corp. (Malvern, PA, USA)

MAP2K1 (MEK1) = MAP2K1 (MEK1) (Homo sapiens, UniProt Q02750)
MAP2K1 (MEK1), sequence (Q02750 whole entry): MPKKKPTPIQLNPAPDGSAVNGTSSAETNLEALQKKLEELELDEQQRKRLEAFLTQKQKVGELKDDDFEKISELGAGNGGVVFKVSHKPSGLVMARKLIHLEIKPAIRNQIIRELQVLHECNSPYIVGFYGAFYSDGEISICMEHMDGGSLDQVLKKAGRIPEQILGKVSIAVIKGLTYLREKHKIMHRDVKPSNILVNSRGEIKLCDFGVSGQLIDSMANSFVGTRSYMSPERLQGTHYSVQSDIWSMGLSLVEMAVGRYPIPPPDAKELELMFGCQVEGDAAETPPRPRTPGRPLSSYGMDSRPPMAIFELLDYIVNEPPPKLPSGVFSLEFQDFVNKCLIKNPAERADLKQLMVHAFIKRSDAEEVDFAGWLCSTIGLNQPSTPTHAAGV

CAMK1δ = CAMK1δ (Homo sapiens, UniProt Q8IU85)
GSK3β = GSK3β (Homo sapiens, UniProt P49841)
PKCα = PKCα (Homo sapiens, UniProt P17252)

## Cn1cncc1C1=CN(c2ncnc3nc[nH]c23)CCS1 [Compound 1, Aplithianine A]
STK39/STLK3
  inhibition at 2 µM: 87.3%
PKD2; 50 nM
  inhibition at 0.05 µM: 38.2%
PKD2; 2 μM
  inhibition at 2 µM: 93.1%
IRAK2; 50 nM
  inhibition at 0.05 µM: 30.7%
IRAK2; 2 μM
  inhibition at 2 µM: 85%
PKCε; 50 nM
  inhibition at 0.05 µM: 25.8%
PKCε; 2 μM
  inhibition at 2 µM: 92.7%
FLT3; 50 nM, 10 μM ATP
  inhibition at 0.05 µM: 22.2%
FLT3; read-out: FLT3 % inhibition
  inhibition at 2 µM: 88.1%
PKCμ/PKD1; 50 nM
  inhibition at 0.05 µM: 21.3%
PKCμ/PKD1; 2 μM
  inhibition at 2 µM: 89.2%
DYRK2; 50 nM, 10 μM ATP
  inhibition at 0.05 µM: 20.6%
DYRK2; 2 μM, 10 μM ATP
  inhibition at 2 µM: 91.2%
DYRK2; 10 μM ATP, read-out: DYRK2 IC50
  IC50: 142 nM
DYRK2; IC50 (kinase)/IC50 (PKG1a)
  DYRK2 Differential (as compared to PKG1a): 13.27
DYRK2; Table 4 dose-response, read-out: DYRK2 IC50 Values
  IC50: 151 nM
PKN3; 50 nM
  inhibition at 0.05 µM: 18.6%
PKN3; 2 μM
  inhibition at 2 µM: 80.4%
smMLCK; 50 nM
  inhibition at 0.05 µM: 18.2%
smMLCK; 2 μM
  inhibition at 2 µM: 91.1%
DYRK3; 50 nM, 10 μM ATP
  inhibition at 0.05 µM: 15.9%
DYRK3; 2 μM, 10 μM ATP
  inhibition at 2 µM: 90.9%
DYRK3; 10 μM ATP, read-out: DYRK3 IC50
  IC50: 202 nM
DYRK3; IC50 (kinase)/IC50 (PKG1a)
  DYRK3 Differential (as compared to PKG1a): 19.13
DYRK3; Table 4 dose-response, read-out: DYRK3 IC50 Values
  IC50: 218 nM
PKCη; 50 nM, 10 μM ATP
  inhibition at 0.05 µM: 15.8%
PKCη; 2 μM, 10 μM ATP
  inhibition at 2 µM: 83.6%
PKCη; 10 μM ATP, read-out: PKCη IC50
  IC50: 202 nM
PKCη; IC50 (kinase)/IC50 (PKG1a)
  PKCeta Differential (as compared to PKG1a): 16.08
PKCη; Table 4 dose-response, read-out: PKCeta IC50 Values
  IC50: 183 nM
YSK1
  inhibition at 0.05 µM: 13.5%
MSK2; 50 nM
  inhibition at 0.05 µM: 13.3%
MSK2; 2 μM
  inhibition at 2 µM: 75.5%
RSK1; 50 nM
  inhibition at 0.05 µM: 13%
RSK1; 2 μM
  inhibition at 2 µM: 82%
DYRK4
  IC50: 15.2 µM
CLK3
  IC50: 14.1 µM
MAP2K1 (MEK1)
  IC50: 18 to 65 µM
MAP2K1 (MEK1); read-out: MAP2K1 / MEK1 IC50, 10 μM ATP
  IC50: 23.6 µM
CAMK1δ
  IC50: 18 to 65 µM
CAMK1δ; read-out: CAMK1δ IC50, 10 μM ATP
  IC50: 52.3 µM
GSK3β
  IC50: 43 to 189 nM
GSK3β; read-out: GSK3β IC50, 10 μM ATP
  IC50: 99 nM
PKCα
  IC50: 800 to 6600 nM
PKCα; read-out: PKCα IC50, 10 μM ATP
  IC50: 1320 nM
